Experimental data as given in US6555328B1, “Screening methods for altering circadian rhythms and for human casein kinase I δ and/or ε phosphorylation of human clock proteins, period 1, -2 and -3” (Aventis Pharmaceuticals Inc., priority 1999, dated 2003).

Assays:
Type in all cases: cell-based
[1] = test system: rat PER1 oscillation in Rat1 fibroblast or Rat SCN cells; assay: PER1 mRNA oscillation after serum shock by TaqMan RT-PCR; details: 10 uM, FIG. 10/11
Method: To test the effect of CKI inhibitors in altering rat PER1 oscillation by quantitative PCR using TaqMan RT-PCR (Perkin Elmer Biosystems), rat-1 fibriblasts are grown in Dulbecco's modified Eagle medium supplimented with 5% fetal calf serum and a mixture of penicillin-streptomycin-glutatamine. SCN cells are grown in Dulbecco's Minimum Eagle medium supplimented with 10% fetal calf serum penicillin-streptomycin-glutamine and 2% glucose. Approximately 5×10^5 cells are plated in 10 cm petri dishes 3-5 days prior to the experiment. Once the plates are confluent, which is designated as time=0, the medium is exchanged with serum rich medium, i.e. serum containing 50% horse serum. After 2 hours of the serum shock in 50% horse serum, this medium is replaced with serum-free medium. At indicated times, the dishes are washed with PBS and kept frozen at −80° C. until the extraction of whole cell mRNA. hCK1ε inhibitor or control is added at the time when serum-free medium is added.
Whole cell mRNA is extracted by means of RNeasy Midi kit or Rnleasy 96 kit (Qiagen) and Dnase treated (Ambion DNA-free). Quantitative PCR is performed with real-time Taq-Man technology (PE Biosystems) [C. A. Heid et al., Genomes Res. 6. M (1996)] and analysed on an ABI PRISM 7700 (T. Takumi et al., Genes Cells 4, 67: 1999). […] Ratios of rPer1 to rActin were calculated and normalized.

[2] = molecular target: hCKIε phosphorylation of hPER1 (Homo sapiens, UniProt P49674); assay: Treatment of transfected cells with hCKIε inhibitor: hPER1 phosphorylation
Sequence of hCKIε phosphorylation of hPER1 (P49674 whole entry): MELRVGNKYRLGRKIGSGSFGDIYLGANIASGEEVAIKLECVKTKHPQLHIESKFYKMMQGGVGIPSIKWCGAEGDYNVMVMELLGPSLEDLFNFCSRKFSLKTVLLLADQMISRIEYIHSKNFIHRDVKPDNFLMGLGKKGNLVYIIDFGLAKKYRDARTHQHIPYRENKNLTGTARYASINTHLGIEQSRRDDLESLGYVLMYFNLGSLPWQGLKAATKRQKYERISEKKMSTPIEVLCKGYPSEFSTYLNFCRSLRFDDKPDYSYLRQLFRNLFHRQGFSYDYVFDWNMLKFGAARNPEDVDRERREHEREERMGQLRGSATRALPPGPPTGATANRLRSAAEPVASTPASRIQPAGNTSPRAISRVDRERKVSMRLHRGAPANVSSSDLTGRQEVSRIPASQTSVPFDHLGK
Source text: (§1) Furthermore, like hCKIε and hPER1, HCKIε co-immunoprecipitates with transfected hPER2. Treatment of transfected cells with the hCKIε inhibitor, CKI-7, results in a decrease of hPER1 and hPER2 phosphorylation. Pulse/chase studies reveal that increased phosphorylation of hPER2 by transfected hCKIε caused hPER2 to be degraded.

[3] = molecular target: hCKIε phosphorylation of hPER2 (Homo sapiens, UniProt P49674); assay: Treatment of transfected cells with hCKIε inhibitor: hPER2 phosphorylation
Sequence of hCKIε phosphorylation of hPER2 (P49674 whole entry): as above
Source text: as §1

CNCCC(Oc1ccc(C(F)(F)F)cc1)c1ccccc1 (stereo not drawn) [F, Fluoxitin]
effect on circadian rhythm of cells (rat Per1 mRNA levels) [1]: do not alter the circadian rhythm of cells

NCCNS(=O)(=O)c1ccc(Cl)c2ccncc12 [CKI-7]
hPER1 phosphorylation [2]: decrease
hPER2 phosphorylation [3]: decrease
